Assay results from patent US8895069B2, “Drug delivery system using hyaluronic acid-peptide conjugate micelle” (Postech Academy-Industry Foundation, priority 2011, dated 2014).

Columns and labels:
[1] = system: HUVEC (Human Umbilical Vein Endothelial Cell); experiment: HUVEC proliferation (MTT); assay type: cell-based
Method: An endothelial cell, HUVEC (Human Umbilical Vein Endothelial Cell) (innopharmascreen co. ltd., Korea) was incubated in a EGM®^2 culture medium (Lonza) and then 100 μL of the cell solution with a concentration of 2×10^4/ml was distributed per each well and incubated in a 5% CO2 cultivator at 37° C. for 16 hours. After 16 hours, the culture medium was replaced and seven types of samples were treated. Among the seven types of samples were the control group as treated only with a culture medium, and the groups treated with 50 μM, 100 μM, and 200 μM of genistein solutions and the solutions of the genistein-loaded hyaluronic acid-peptide conjugate of Example 1 comprising 50 μM, 100 μM, and 200 μM of genistein, respectively. 10 μL of each sample and 100 μL of the culture medium were mixed and treated. After the samples were treated, they were incubated in 5% CO2 incubator at 37° C. and the culture media with the samples being mixed therein […] once a day. After three days, the culture media were removed and the samples were treated with 110 μL of an MTT solution (Amresco Co. (Solon, Ohio)), and incubated in a cultivator at 37° C. for two hours and then 50 μL of DMSO was added thereto to measure a light absorbency at 540 nm. The light absorbance as measured was compared with the light absorbance of the control group and the degree of the cell growth was calculated.

[2] = system: vascular hyperpermeability due to diabetic retinopathy; experiment: Vascular hyperpermeability due to diabetic retinopathy, genistein-loaded micelle (Experimental Example 14); assay type: in vivo, Sprague Dawley (SD) male rats
Method: First, each rat was injected intraperitonially with 60 mg/kg of streptozotocin dissolved in 10 mM citrate buffer at pH 4.5 in order for diabetes to be induced. In three days after the injection of streptozotocin, the rat was determined to develop diabetes when its serum concentration of glucose was at least 300 mg/dL. In a week after the injection of streptozotocin, 10 μL of each sample solution was injected into the vitroeus body.

[3] = system: corneal neovascularization; experiment: Corneal neovascularization, genistein-loaded micelle (Experimental Example 13); assay type: in vivo, Albino Sprague Dawley male rats
[4] = system: corneal neovascularization; experiment: Corneal neovascularization after silver nitrate cauterization (Experimental Example 8); assay type: in vivo, Albino Sprague Dawley male rats; details: rat cornea, subconjunctival 20 μL; Avastin 10 mg/ml, peptide and conjugate […] peptide; NV control 90.8±5%
Method: All animal tests including this experiment were conducted in compliance with the guidelines of the Catholic University of Korea and the principles of laboratory animal care; NIH publication No. 85-23 revised in 1985.
The rat was put under anesthesia by an intra-peritoneal injection of a mixed solution of 20 mg/kg of ketamine hydrochloride and 2.5 mg/kg of xylazine hydrochloride. […] In 3 days after the cauterization, subconjunctival administration was conducted with 20 μL of each of 4 sample solutions (a normal control group, NV control (neovascularization control: a control group wherein angiogenesis was made to occur and no drug was treated thereon), a solution comprising Avastin (Roche) dissolved in PBS at a concentration of 10 mg/ml, a solution comprising anti-Flt1 peptide (GGNQWFI) (SEQ ID NO: 3) dissolved in PBS at a concentration of 2.5 mg/ml, and a solution comprising the hyaluronic acid-peptide conjugate with a lower peptide concentration obtained from Preparation Example 3 as dissolved in PBS at a concentration of 2.5 mg/ml based on the content of anti-Flt1 peptide). […] The obtained images were subjected to quantitative analysis with Image J program (Ver. 1.38, National Institute of Health, MD).

[5] = genistein as dispersed in water, 6.2 mg/ml
[6] = genistein as dissolved in DMSO, 6.2 mg/ml

Row | Compound | HUVEC growth inhibition, comparison of genistein alone with micelle ([1]; genistein alone at 200 uM versus genistein-loaded micelle at 50 uM) | HUVEC cell number relative to control group (100%) ([1]; genistein concentration 100 μm (so in the source), 3 days, MTT) | average intensity of the fluorescence of retina relative to normal group (1) [2, 5] | average intensity of the fluorescence of retina relative to normal group (1) [2, 6] | average ratio of the neovascular area [3, 5] | average ratio of the neovascular area [3, 6] | average intensity of the fluorescence of retina relative to normal group (1) ([2]; normal = 1, negative control 2.54±0.20, Avastin 10 mg/ml, micelle 3.2 mg/ml peptide, four weeks after streptozotocin) | average ratio of the neovascular area [4] | average ratio of the neovascular area ([3]; rat cornea, samples in PBS: Avastin 10 mg/ml, conjugate and micelle 3.2 mg/ml peptide, control group 86%)
1 | O=c1c(-c2ccc(O)cc2)coc2cc(O)cc(O)c12 [genistein] | inferior to the results obtained from the group treated with the genistein-loaded micelle at its lowest concentration (50 uM) | 70.5±3.5% | 2.38±0.20 | 2.00±0.16 | 68% | 38% |  |  | 
2 | Avastin: Avastin (Roche), positive control |  |  |  |  |  |  | 1.49±0.17 | 35.4±6.6% | 23%
